Results on seven compounds are retold here after patent US20090221648A1, “COMPOSITIONS FOR TREATMENT OF COGNITIVE DISORDERS” (priority 2007, published 2009).

Assay [1] relates to Spontaneously Hypertensive rat (SHR) pups. Conditions: from literature (Fox et al. 2002, 2005; Decker et al. 2008), cited from earlier work.
Assay [2] shares this test system. Put plainly: 5-trial inhibitory avoidance in SHR rat pups. The format is in vivo. As to conditions: for Level of Efficacy in SHR 5-trial Inhibitory Avoidance Model: applicant's Examples 1 and 2. The protocol: Methods: In this behavioral paradigm, hypothesized to test aspects of both attention and impulsivity, vehicle-treated Spontaneously Hypertensive rat (SHR) pups show an impaired ability to withhold a natural response to transfer from the light into a preferred dark chamber that is paired with a mild footshock. In this study, SHR pups at postnatal day 22-23 were dosed with either vehicle or atomoxetine (0.001, 0.01, 0.1, 1.0 and 6.0 mg/kg, s.c.) 30 min prior to being tested. They were then placed into the brightly illuminated compartment of a two compartment chamber (Hamilton Kinder, San Diego, Calif.) with a retractable door between the light and dark compartments opened. After animals transferred through the open door to the dark compartment, the door closed automatically and a 0.1 mA scrambled current was applied to a 31 bar stainless steel grid floor for one second. At this point, the pup was removed and returned to its home cage and littermates for a one minute inter trial interval, and the transfer latency was noted. The same pup was returned to the bright compartment, and the process repeated for five trials. Latency to enter the dark compartment was used to evaluate learning.
Methods: In this behavioral paradigm, hypothesized to test aspects of both attention and impulsivity, vehicle-treated SHR rat pups show an impaired ability to withhold a natural response to transfer from the light into a preferred dark chamber that is paired with a mild footshock. In this study, SHR pups at postnatal day 21-25 were dosed with either vehicle or the alpha7 agonist, compound 1,2-methyl-5-[6-phenylpyridazin-3-yl]octahydropyrrolo[3,4-c]pyrrole, (0.01, 0.1, and 1.0 umol/kg, s.c.) 30 min prior to being tested. They were then placed into the brightly illuminated compartment of a two compartment chamber (Hamilton Kinder, San Diego, Calif.) with a retractable door between the light and dark compartments opened. After animals transferred through the open door to the dark compartment, the door closed automatically and a 0.1 mA scrambled current was applied to a 31 bar stainless steel grid floor for one second. At this point, the pup was removed and returned to its home cage and littermates for a one minute inter trial interval, and the transfer latency was noted. The same pup was returned to the bright compartment, and the process repeated for five trials. Latency to enter the dark compartment was used to evaluate learning. Methods for evaluating 2-methyl-5-[6-phenylpyridazin-3-yl]octahydropyrrolo[3,4-c]pyrrole also are described in Tietje, Karin R., et al., Preclinical Characterization of A-582941: A Novel α7 Neuronal Nicotinic Receptor Agonist with Broad Spectrum Cognition-Enhancing Properties, CNS Neuroscience & Therapeutics 14 (2008) 65-82 (2008).
The 5-trial inhibitory avoidance assay in spontaneously hypertensive (SHR) rat pups has been proposed as a model with predictive validity for compounds showing efficacy in attention disorders such as ADHD.

The test system of a further assay is rats. Conditions: rats performing an operant visual signal detection task; Rezvani et al. 2008; cited from earlier work.

“Also recorded” adds a separate entry of the source. Like-named read-outs stand apart in the source and are kept apart here.

Turning to `Cc1ncccc1OC[C@@H]1CCCN1` [ABT-089], the “Level of Efficacy in SHR 5-trial Inhibitory Avoidance Model” value in assay [1] is “full efficacy and Full”.
For `C[C@@H]1CCCN1CCc1cc2cc(-c3ccc(C#N)cc3)ccc2o1` [ABT-239], the “Level of Efficacy in SHR 5-trial Inhibitory Avoidance Model” value in assay [1] was “full efficacy and Full”.
Turning to `Cc1cc([C@@H]2CCCN2C)on1` [ABT-418], in assay [1], the “Level of Efficacy in SHR 5-trial Inhibitory Avoidance Model” value is “full efficacy and Full”.
For `CNCC[C@@H](Oc1ccccc1C)c1ccccc1` [Atomoxetine, atomoxetine], in assay [2] (SHR pups postnatal day 22-23, 0.001, 0.01, 0.1, 1.0 and 6.0 mg/kg s.c., 30 min prior to testing, FIG. 1), the “transfer latency compared to vehicle treated animals” value is “did not alter transfer latency”. The “Level of Efficacy in SHR 5-trial Inhibitory Avoidance Model” value in assay [2] is recorded as “None”; in assay [2] (listed as atomoxetine), “did not show efficacy; also recorded: not efficacious”.
For `CN1CC2CN(c3ccc(-c4ccccc4)nn3)CC2C1` (stereo not drawn) [Compound 1, 2-methyl-5-[6-phenylpyridazin-3-yl]octahydropyrrolo[3,4-c]pyrrole], the “effect on transfer latency” value in assay [2] (SHR pups postnatal day 21-25, 0.01, 0.1 and 1.0 umol/kg s.c., 30 min prior to testing, Mann Whitney p<0.05, FIG. 2) is given as “significant, dose dependent effect”. In addition, the transfer latency result in assay [2] (SHR pups postnatal day 21-25, dose of 1 μmol/kg s.c., FIG. 2) is listed as “significantly increasing transfer latency”. Moreover, in assay [2], the “Level of Efficacy in SHR 5-trial Inhibitory Avoidance Model” value is “full efficacy and Full”.
With `COC(=O)C(c1ccccc1)C1CCCCN1` (stereo not drawn) [Methylphenidate, methylphenidate], the entries for the “Level of Efficacy in SHR 5-trial Inhibitory Avoidance Model” value in assay [1] and in assay [1] (listed as methylphenidate) were “Full” and “fully efficacious”, respectively.
Consider `Cl.O=C(N[C@@H]1CN2CCC1CC2)c1n[nH]c2ccccc12` [R3487/MEM3454], for which the visual sustained attention entry with rats is “improve visual sustained attention”.
